According to patent US6699889B2, “Use of glucose uptake enhancer for reducing post-ischemic injury of the heart” (SmithKline Beecham p.l.c., priority 1998, dated 2004):

Assays:
[1] = system: isolated working hearts from STZ-diabetic rats; experiment: Isolated working hearts from STZ-diabetic male Wistar rats: baseline ventricular function and zero-flow ischaemia and re-perfusion; settings: diabetic rat hearts
Procedure: (§1) A solution of streptozotocin (STZ commercially available) was prepared in citrate buffer (40 mg/ml).
The development of diabetes and its persistence were monitored by serial quantitative measurements of glucose in the urine with reagent strips. On the day of the experiment, the severity of diabetes was assessed by measuring glucose concentrations from blood samples collected at the time of heart excision. Only rats with plasma glucose levels exceeding 20 mM were considered diabetic and included in these experiments.
(§2) Perfusion of isolated hearts: Rats were anaesthetized using thiopental sodium (50 mg/kg body weight intraperitoneally). Hearts from normoglycaemic and one-month STZ-induced diabetic rats, were quickly removed and immersed in ice-cold buffer to produce an immediate cessation of contractility. The aorta was dissected free and then mounted onto a cannula attached to a perfusion apparatus. Retrograde perfusion of the heart was started for 10 min by the Langendorff method and then switched to perfusion using the working-heart technique. […] The perfusate was not recirculated. Preload was held at a pressure of 15 cm H2O and afterload, as well as coronary perfusion pressure, were kept constant at 80 cm H2O.
Stroke volume (ml/beat) was derived by dividing cardiac output by heart rate. […]
(§3) Statistical significance of differences was determined using Student's t-test.

[2] = system: isolated working hearts from male Wistar rats; experiment: Isolated working hearts from normal male Wistar rats: baseline ventricular function and recovery after 30 min zero-flow ischaemia and re-perfusion; settings: normal rat hearts
Procedure: as §1
An acclimatisation period of at least one week was allowed prior to experiment.
as §2
Stroke volume (ml/beat) was derived by dividing cardiac output by heart rate.
Induction of global ischaemia and re-perfusion: Total ischaemia was initiated by clamping the left atrium and the aortic perfusion tubes and reducing coronary flow to zero for 30 minutes. The hearts were then re-perfused at 37° C. in working heart mode and recovery of ventricular function was followed for 30 minutes.
as §3

SMILES: CN(CCOc1ccc(CC2SC(=O)NC2=O)cc1)c1ccccn1 (centres unmarked) [Compound (I), 5-[4-[2-(N-methyl-N-(2-pyridyl)amino)ethoxy]benzyl]thiazolidine-2,4-dione]
- Protective properties in hearts subjected to zero-flow ischaemia in vitro [1]: protective properties of rapid onset
- Protective properties in hearts subjected to zero-flow ischaemia in vitro [2]: protective properties of rapid onset
